Test results taken from PubChem BioAssay (NCI).
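Growth conditions: 96-well plates. Treatment: test compound, 48 hours, 5 concentrations. Analysis: linear interpolation between bracketing concentrations; unreached endpoints set to highest concentration. At the TGI there is no net growth.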

What was measured:
Test in all cases: NCI anticancer screen, dose series, 48 h
NCI-H460 lung = system: NCI-H460 lung
HCT-15 colon = system: HCT-15 colon
EKVX NSCLC = system: EKVX NSCLC
ACHN renal = system: ACHN renal
TK-10 renal = system: TK-10 renal
MALME-3M melanoma = system: MALME-3M melanoma
SF-268 CNS = system: SF-268 CNS
T-47D breast = system: T-47D breast
LOX IMVI melanoma = system: LOX IMVI melanoma
SK-MEL-28 melanoma = system: SK-MEL-28 melanoma
HOP-62 NSCLC = system: HOP-62 NSCLC
HL-60(TB) leukemia = system: HL-60(TB) leukemia
HOP-92 NSCLC = system: HOP-92 NSCLC
SW-620 colon = system: SW-620 colon
A549 NSCLC = system: A549 NSCLC
MCF7 breast = system: MCF7 breast
MOLT-4 leukemia = system: MOLT-4 leukemia
K-562 leukemia = system: K-562 leukemia
NCI/ADR-RES ovarian = system: NCI/ADR-RES ovarian
UACC-257 melanoma = system: UACC-257 melanoma

Compound | TGI (NCI-H460 lung) [µM] | TGI (HCT-15 colon) [µM] | TGI (EKVX NSCLC) [µM] | TGI (ACHN renal) [µM] | TGI (TK-10 renal) [µM] | TGI (MALME-3M melanoma) [µM] | TGI (SF-268 CNS) [µM] | TGI (T-47D breast) [µM] | TGI (LOX IMVI melanoma) [µM] | TGI (SK-MEL-28 melanoma) [µM] | TGI (HOP-62 NSCLC) [µM] | TGI (HL-60(TB) leukemia) [µM] | TGI (HOP-92 NSCLC) [µM] | TGI (SW-620 colon) [µM] | TGI (A549 NSCLC) [µM] | TGI (MCF7 breast) [µM] | TGI (MOLT-4 leukemia) [µM] | TGI (K-562 leukemia) [µM] | TGI (NCI/ADR-RES ovarian) [µM] | TGI (UACC-257 melanoma) [µM]
On1c(-c2ccccc2)nc2ccccc2c1=S | 61.8 | > 100 | > 100 | > 100 | > 100 | > 100 | > 100 | > 100 | > 100 | > 100 | > 100 | > 100 | > 100 | > 100 | > 100 | > 100 | 11.2 | > 100 | > 100 | > 100
Nc1nc(Cl)cc(NCC2(CO)CCCC2)n1 | > 100 | > 100 | > 100 | > 100 | > 100 | > 100 | > 100 | > 100 | > 100 | > 100 | > 100 | > 100 | > 100 | > 100 | > 100 | > 100 | > 100 | > 100 | > 100 | > 100
CCOC(=O)NC(Nc1cccc(C(F)(F)F)c1)(C(F)(F)F)C(F)(F)F | > 100 | > 100 | > 100 | > 100 | > 100 | > 100 | > 100 | > 100 | > 100 | > 100 | > 100 | > 100 | > 100 | > 100 | > 100 | > 100 | > 100 | > 100 | > 100 | > 100
C[N+]12CCCCC1C(CN1C(=O)Cc3c4ccccc4c(c4ccccc34)CC1=O)CCC2 (stereo not given) | > 100 | > 100 | > 100 | > 100 | > 100 | > 100 | > 100 | > 100 | > 100 | > 100 | > 100 | > 100 | > 100 | > 100 | > 100 | > 100 | > 100 | > 100 | > 100 | > 100
CSc1cnc2ccccc2c1SC1CN(Cc2ccccc2)c2ccccc2C1=O (stereo not given) | > 100 | > 100 | > 100 | > 100 | > 100 | > 100 | > 100 | > 100 | > 100 | > 100 | > 100 | > 100 | > 100 | > 100 | > 100 | > 100 | > 100 | > 100 | > 100 | > 100
Nc1ccc(S2(c3ccc(N)cc3)C=C(c3ccccc3)C(c3ccccc3)=C2)cc1 | > 100 | > 100 | > 100 | > 92.5 | > 85.5 | > 100 | > 100 | > 100 | > 100 | > 100 | > 100 | > 100 | > 100 | > 100 | > 100 | > 100 | > 100 | > 100 | > 100 | > 100
N#Cc1c(Cl)cc(Cl)n2c1nc1ccccc12 | 23.7 | 12.3 | 67.6 | 6.65 | 18.1 | 7.36 | 40.1 | 31.8 | 18.7 | 20.3 | 51.7 | > 31.1 | > 21.9 | > 45 | 34.7 | 24 | > 28.8 | 11.5 | 40.5 | 25.1
CC12CCC(O)CC1CCC1C2CCC2(C)C(C(=O)CC(O)C(F)(F)F)CCC12 (stereo not given) | > 100 | > 100 | 98.9 | > 100 | > 100 | > 100 | > 100 | > 100 | > 100 | > 100 | > 95.1 | 47.5 | > 85.2 | > 100 | > 100 | > 100 | 43.6 | 17.4 | > 100 | > 91.6
COc1ccc(NS(=O)(=O)c2ccc(NC(NC(=O)CC(C)C)(C(F)(F)F)C(F)(F)F)cc2)nn1 | > 100 | > 100 | > 100 | > 100 | > 100 | > 100 | > 100 | > 100 | > 100 | > 100 | > 100 | > 100 | > 100 | > 100 | > 100 | > 100 | > 100 | > 100 | > 100 | > 100
CC(C)NC(=O)OCCN=c1c2ccccc2ccc2ccccc12 | > 100 | > 100 | > 100 | > 100 | > 100 | > 100 | > 100 | 67.6 | > 100 | > 100 | > 100 | 43.9 | 88 | > 100 | > 100 | > 100 | 71.2 | > 100 | > 100 | > 100
COc1ccc(C2OC(c3ccncc3)=NN2C)cc1OC (stereo not given) | > 100 | > 100 | > 100 | > 100 | > 100 | > 100 | > 100 | > 100 | > 100 | > 100 | > 100 | > 100 | > 100 | > 100 | > 100 | > 100 | > 100 | > 100 | > 100 | > 100
Cc1nc2sc3ccccc3n2c(=O)c1N=Nc1ccc(Cl)cc1 | > 100 | > 100 | > 100 | > 100 | > 100 | > 100 | > 100 | > 100 | > 100 | > 100 | > 100 | > 100 | > 100 | > 100 | > 100 | > 100 | > 100 | > 100 | > 100 | > 100
CC(=O)O[C@H]1CC[C@@]2(C)C(=CC[C@H]3[C@@H]4C[C@H](N5CCOCC5)[C@H](OC(C)=O)[C@@]4(C)CC[C@@H]32)C1 | > 100 | > 100 | > 100 | > 100 | > 100 | > 100 | > 100 | > 100 | > 100 | > 100 | > 100 | > 100 | > 100 | > 100 | > 100 | > 100 | > 100 | > 100 | > 100 | > 100
CCOC(=O)NC(Nc1ccc([N+](=O)[O-])cc1)(C(F)(F)F)C(F)(F)F | > 100 | > 100 | > 100 | > 100 | > 100 | > 100 | > 100 | > 100 | > 100 | > 100 | > 100 | > 100 | > 100 | > 100 | > 100 | > 100 | > 100 | > 100 | > 100 | > 100
COc1ccc2c(cnc3c4cc(OC)c(OC)cc4ccc23)c1 | > 100 | > 100 | > 100 | > 100 | > 100 | > 100 | > 100 | > 100 | > 100 | > 100 | > 100 | > 100 | > 100 | > 100 | > 100 | > 100 | > 100 | > 100 | > 100 | > 100
Cc1ccc2c(c1)C(=O)C1(C2)Cc2cccc(C)c2C1=O (stereo not given) | > 100 | > 100 | > 100 | > 100 | > 100 | > 100 | > 100 | > 100 | > 100 | > 100 | > 100 | > 100 | > 100 | > 100 | > 100 | > 100 | > 100 | > 100 | > 100 | > 100
CC(=O)[C@@]1(O)CC[C@H]2[C@@H]3C[C@H](C)C4=CC(=O)C=C[C@]4(C)[C@@]3(F)[C@@H](O)C[C@@]21C | > 100 | > 100 | > 100 | > 100 | > 100 | > 100 | > 100 | > 100 | > 100 | > 100 | > 100 | > 100 | > 100 | > 100 | > 100 | > 100 | > 100 | > 100 | > 100 | > 100
